According to PubChem BioAssay (NCI):
Values joined by “and” are separate entries in the source; they are usually repeats but may differ in a detail not shown here. Equal values may be shown once.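 Compound exposure: 48 hours, 5 concentrations, 96-well plates. TGI denotes the concentration required for complete inhibition of growth.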

Tests used:
Assay in all cases: NCI tumour cell line growth inhibition, 48 h
[1] = system: A498 renal
[2] = system: DU-145 prostate
[3] = system: EKVX NSCLC
[4] = system: HCT-116 colon
[5] = system: HOP-62 NSCLC
[6] = system: M14 melanoma
[7] = system: OVCAR-5 ovarian
[8] = system: SF-268 CNS
[9] = system: SK-MEL-28 melanoma
[10] = system: SK-OV-3 ovarian

SMILES | TGI [1] | TGI [2] | TGI [3] | TGI [4] | TGI [5] | TGI [6] | TGI [7] | TGI [8] | TGI [9] | TGI [10]
Cc1cnc2[nH]c(-c3sccc3C)cc(=O)c2c1 | > 100 µM | > 100 µM | > 100 µM | > 100 µM | > 100 µM | > 33.4 µM | > 100 µM | > 100 µM | > 100 µM | > 100 µM
CN1C(=O)[C@](C)(Cc2ccc(F)cc2)N(C(=O)OC(C)(C)C)[C@@H]1C(C)(C)C | 70 µM | > 100 µM | > 100 µM | > 100 µM | > 100 µM | > 100 µM | > 100 µM | > 100 µM | > 100 µM | > 100 µM
Oc1cccc(-c2cn3cc(Cl)ccc3n2)c1 | > 100 µM | > 100 µM | 83.5 µM | > 100 µM | > 100 µM | > 100 µM | > 100 µM | > 100 µM | > 100 µM | > 100 µM
COc1ccc(C2CCc3c(cnc4nc(N)nc(N)c34)C2)cc1 (stereo not given) | > 100 µM | > 100 µM | > 100 µM | > 100 µM | 65 µM | > 100 µM | > 100 µM | > 100 µM | > 100 µM | 50.1 µM
CC(C)c1cc(C(C)C)c(B(c2ccccc2)c2ccccc2)c(C(C)C)c1Br | > 100 µM | > 100 µM | > 100 µM | > 100 µM | > 100 µM | > 100 µM | > 100 µM | > 100 µM | > 100 µM | > 100 µM
CSC(=N/N=C(\C)c1ccc(S(=O)(=O)N(C)c2ccccc2)cc1)SC | > 100 µM | > 100 µM | > 100 µM | > 100 µM | > 100 µM | > 100 µM | > 100 µM | > 100 µM | > 100 µM | > 100 µM
O=C(Nc1ccccc1C(=O)O)C(=Cc1ccccc1O)NC(=O)c1ccccc1 | > 100 µM | > 100 µM | > 100 µM | > 100 µM | > 100 µM | > 100 µM | > 100 µM | > 100 µM | > 100 µM | > 100 µM
O=C(O)CCC(NC(=O)/C(=C/c1ccccc1)NC(=O)c1ccccc1)C(=O)O (stereo not given) | > 100 µM | > 100 µM | > 100 µM | > 100 µM | > 100 µM | > 100 µM | > 100 µM | > 100 µM | > 100 µM | > 100 µM
CCOC(=O)CCN1C(=O)c2c(NC(=O)C(=O)O)cccc2S1(=O)=O | > 100 µM | > 100 µM | > 100 µM | > 100 µM | > 100 µM | > 100 µM | > 100 µM | > 100 µM | > 100 µM | > 100 µM
COc1cc2c3c4[n+](cc2c(OC)c1OC)CCC4CCC3 (stereo not given) | > 100 µM | > 100 µM | > 100 µM | > 100 µM | > 100 µM | > 100 µM | > 100 µM | > 100 µM | > 100 µM | > 100 µM
NC(=O)c1ccc(S(=O)(=NS(=O)(=O)c2ccccc2)c2ccc(C(N)=O)cc2)cc1 | > 100 µM | > 100 µM | > 100 µM | > 100 µM | > 100 µM | > 100 µM | > 100 µM | > 100 µM | > 100 µM | > 100 µM
O=C1CCc2c(sc3ncnc(Nc4cccc(Br)c4)c23)C1 | 31.4 µM | 17.3 µM | 12.4 µM | 11.7 µM | 18.7 µM | 13.9 µM | 23.4 µM | 15.2 µM | 52.6 µM | 20.1 µM
CC(=O)OC1COC(n2c(N)c(C#N)c(-c3ccccc3)c(C#N)c2=S)C(OC(C)=O)C1OC(C)=O (stereo not given) | 66 µM and 79.3 µM | > 100 µM | > 100 µM | > 100 µM | > 100 µM | > 100 µM | > 100 µM | > 100 µM | > 100 µM | > 100 µM
CC1=NNC(N)=N/C1=C\C(Sc1ccc(Cl)cc1)c1ccc(Cl)cc1Cl (stereo not given) | 42.8 µM | 61.7 µM | 32.7 µM | > 65 µM | 57.8 µM | 31.8 µM | 36.7 µM | 33.2 µM | 55.7 µM | 41.9 µM
CCOC(=O)CCC1(C(=O)O[C@@H]2C[C@H](C)CC[C@H]2C(C)C)CCCCC1=O (stereo not given in full) | > 100 µM | > 100 µM | > 100 µM | > 100 µM | > 100 µM | > 100 µM | > 100 µM | > 100 µM | > 100 µM | > 100 µM
COc1ccc(C2=C(N)c3cc(OC)ccc3C2=O)cc1 | > 100 µM | > 100 µM | > 100 µM | > 100 µM | > 100 µM | > 100 µM | > 100 µM | > 100 µM | > 100 µM | > 100 µM
O=C1/C(=C/Cc2ccco2)N=C(c2ccccc2)N1c1nc2c(Cl)cc(Cl)cc2s1 | 43.4 µM | > 100 µM | 76.2 µM | 81.2 µM | > 100 µM | > 100 µM | > 100 µM | 89.2 µM | > 100 µM | > 100 µM
CC(=O)c1nc(C#N)c(N)o1 | > 100 µM | > 100 µM | > 100 µM | > 100 µM | > 100 µM | > 100 µM | > 100 µM | > 100 µM | > 100 µM | > 100 µM
O=C1CSC(c2cc3cc(Br)ccc3nc2Cl)N1c1ccc(F)c(Cl)c1 (stereo not given) | > 50 µM | > 50 µM | > 50 µM | > 50 µM | > 50 µM | > 50 µM | > 50 µM | > 50 µM | > 50 µM | > 50 µM
